Assay results taken from article PMC5161434 (EBioMedicine, 2016).

Key:
[1] = Host toxicity in tumor-bearing mice; format: in vivo, BALB/c nude mice; details: 25 mg/kg daily, end of experiment; for organ weights (liver, kidneys, spleen, lung): versus vehicle
OVCAR3 cells [2] = assay: PI staining cell-cycle distribution, OVCAR3; format: cell-based, human; details: 24 h
OVCAR3 cells [3] = assay: Western blotting of apoptosis, cell cycle and EMT proteins, OVCAR3; format: cell-based, human; details: 24 h; for cleavage of caspase 3 and PARP: ARS4 1, 5, 10 μM, DHA or melphalan 10 μM
A2780 = assay: CCK-8 cell viability, A2780 ovarian cancer cells; format: cell-based, human; details: for IC50: Homo sapiens, A2780, 48 h, read-out: IC50 (cell growth inhibition), A2780
A2780 cells [4] = assay: PI staining cell-cycle distribution, A2780; format: cell-based, human; details: 24 h
A2780 cells [5] = assay: Western blotting of apoptosis, cell cycle and EMT proteins, A2780; format: cell-based, human; details: 24 h; for cleavage of caspase 3 and PARP: ARS4 1, 5, 10 μM, DHA or melphalan 10 μM
OVCAR3 = assay: CCK-8 cell viability, OVCAR3 ovarian cancer cells; format: cell-based, human; details: for IC50: Homo sapiens, OVCAR-3, 48 h, read-out: IC50 (cell growth inhibition), OVCAR-3

| SMILES | organ weights (liver, kidneys, spleen, lung) [1] | effect on cell-cycle progression (OVCAR3 cells [2]) | cleavage of caspase 3 and PARP (OVCAR3 cells [3]) | growth of cells after 12 h of exposure (CCK8) (A2780; A2780, 12 h, data not shown) | IC50 (A2780) | effect on cell-cycle progression (A2780 cells [4]) | cleavage of caspase 3 and PARP (A2780 cells [5]) | IC50 (OVCAR3) | growth of cells after 12 h of exposure (CCK8) (OVCAR3; OVCAR3, 12 h, data not shown) | EMT phenotype (E-cadherin, Vimentin, Snail, Slug expression) (OVCAR3 cells [3]) | histological findings (H&E; liver, kidneys, spleen, lung) [1] | EMT phenotype (E-cadherin, Vimentin, Snail, Slug expression) (A2780 cells [5]) |
| --- | --- | --- | --- | --- | --- | --- | --- | --- | --- | --- | --- | --- |
| N.N.O=C([O-])C1(C(=O)[O-])CCC1.[Pt+2] [Carboplatin] | loss | – | – | – | – | – | – | – | – | – | – | – |
| C[C@H]1[C@@H](O)O[C@@H]2O[C@@]3(C)CC[C@H]4[C@H](C)CC[C@@H]1[C@@]24OO3 [Compound 1, Dihydroartemisinin] | – | modest arrest in the G0/G1 phase | less effect | no apparent inhibition of growth | 4.75 µM | modest arrest in the G0/G1 phase | less effect | 5.65 µM | no apparent inhibition of growth | – | – | – |
| N[C@@H](Cc1ccc(N(CCCl)CCCl)cc1)C(=O)O [Compound 3, melphalan] | Severe decreases in organ weight | arrested cells in the S phase | less effect | – | 23.2 µM | arrested cells in the S phase | less effect | 11.6 µM | – | no obvious effect | substantial necrosis of liver and spleen parenchymal cells | no obvious effect |
